# According to US4720497A, “6-purinyl N-/2-chloroethyl/carbamate and thiocarbamate and process for the preparation thereof” (SPOFA, Spojene Podniky pro Zdravotnickou Vyrobu, priority 1984, dated 1988):
# “Also recorded” adds a separate entry of the source. Where two headings read alike, the source gives them in different places.
# How the values were obtained:
# Ehrlich Carcinoma cells = assay: Cytotoxicity in vitro: 14C precursor incorporation in Ehrlich Carcinoma cells (Example 10); assay type: cell-based; settings: for IC50: Ehrlich, read-out: ID50 (14C incorporation)
# Description: (§1) The antineoplastic activity of the compounds of the invention has been investigated by testing the compounds of the chemical group "in vivo" against experimental rodent tumors such as Crocker's sarcoma (S180), solid-type Ehrlich carcinoma (STE), kreb's ascites tumor (Kr2), all maintained in mice H, Gardner lymphosarcoma (LsG, C3H mice), P388 and L1210 leukemias (DBA2 mice), Zajdela ascites hapatoma (ZAH, Wistar rats), Yoshida ascites reticulosarcoma (Y, Wistar rats) and B16 melanoma (C57B16 mice) in experiments according to Jelinek, V. (Neoplasma 12, 469 (1969); ibid. 7, 146 (1960) and "in vitro" experiments using radioactive precursors of nucleic acids and proteins according to Miko, M. et al. (Cancer Res. 39, 4242 (1979); Neoplasma 26, 449 (1979); ibid. 16, 161--1969) with minor modifications (Mattern J.: Studies on the Drug Sensitivity of Short Term Cultured Tumor Cell Suspensions. In "Human Tumors in Short Term Culture" (Dendy, P. P. ed.), p. 301, Academic Press 1976). Therapeutic synergism has been studied by the method of Carter, W. H. et al. (cf. Cancer Res. 42, 2963--1982).
# The degree of influence on the incorporation of ^14 C from adenine-^14 C and valine-^14 C to the fraction of Ehrlich Carcinoma cells insoluble in trichloroacetic acid serves as the measure of cytotoxicity. The value ID50 is the concentration of a cytostatic that reduces the ^14 C incorporation down to 50% of the non-influencedcontrol cells.
# Zajdel ascitic hepatoma [1] = assay: Survival of rats with implanted Zajdel ascitic hepatoma, comparison with 6-mercaptopurine (Example 8); assay type: in vivo, female Wistar rats; settings: for Period of survival (% of control): Wistar rats; for antitumor effect / average period of survival vs non-treated control: in words (Example 8)
# Description: as §1
# (§2) Fifty infantile female Wistar rats weighing approximately 60 g are divided into five groups: one control and four experimental ones, 10 animals each. A lethal dose of the tumor ascites from Zajdel ascitic hepatoma is implanted intraperitoneally in all the animals. The experimental groups are treated with the substance Ia in water suspension. The suspension contains the substance Ia in such an amount that a dose of 0.4 or 0.2 ml of the suspension p.o. is equal to a dose of 200 or 100 mg Ia/Kg. This dose is applied to the experimental animals once a day, five times altogether, starting on the first day after the implantation.
# [2] = system: Yoshida ascitic tumor cells; assay: Cytotoxicity in vitro: initial velocity of 3H/14C precursor incorporation in Yoshida ascitic tumor cells (Example 11); assay type: cell-based; settings: for IC50: Rattus norvegicus, YOSHIDA
# Description: as §1
# (§3) In analogous experiments, the degree of influence on the initial velocity of the incorporation of ^3 H from 5-iodo-2'-deoxy-(6-^3 H)uridine or that of ^14 C from a mixture of L-(U-^14 C)-aminoacids to the fraction of Yoshida ascitic tumor cells insoluble in trichloroacetic acid serves as the measure of cytotoxicity. The value IC50 is the concentration of a substance that reduces the initial velocity of the ^3 H or ^14 C incorporation down to 50% of the noninfluenced control cells.
# Yoshida tumor [3] = assay: Survival of rats with implanted Yoshida tumor (Example 6); assay type: in vivo, female Wistar rats; settings: Wistar rats
# Description: as §1
# (§4) Additionally, the compounds of the present invention are useful in increasing survival time of the suitable biological subjects, namely mice and rats bearing tumors STE, ZAH and/or Y: because of the lethal nature of the test system employed, the antitumor effect of the compounds is illustrated by a side comparison of the survival time of treated animals (survival for a longer time) with the untreated control groups of animals (cf. Examples 5, 6, and 7). In these typical experiments, ten animals are in the experimental groups, and the treated groups of animals survive for a longer time than the untreated controls.
# as §2
# Yoshida tumor [4] = assay: Survival of rats with implanted Yoshida tumor (Example 7); assay type: in vivo, female Wistar rats; settings: Wistar rats
# Description: as §1, §4, §2
# Yoshida ascitic sarcoma = assay: Therapeutic synergism with Benfluron, survival of rats with Yoshida ascitic sarcoma (Example 9); assay type: in vivo, female Wistar rats; settings: for Average period of survival (days): geometric average (fiducial limits P=0.95)
# Description: as §1
# One hundred and twenty seven infantile female Wistar rats weighing 50-60 g are divided into sixteen groups: one control group of 25 animals and fifteen experimental groups of 6 to 7 animals. A lethal dose of the tumor ascites from Yoshida ascitic sarcoma is implanted intraperitoneally in all the animals. The experimental groups are treated with the substance Ia in water suspension, water solution of a cytostatic Benfluron (CAS 80427-58-3), or a combination of both the substances. The suspension or solution contains the substances in such a concentration that doses of 0.4 or 0.2 and 0.1 ml of the suspension/solution p.o. are equal to doses of 200 or 100 and 50 mg Ia/kg or to doses of 160, 80 or 40 mg of Benfluron/kg. Doses of the substance Ia are administered to the experimental animals once a day, four times altogether, starting on the first day after the tumor implantation. Benfluron is administered only once, on the fourth day after the tumor implantation, 7 hours after the last dose of the substance Ia.
# [5] = literature; cited from earlier work
# tumor cells = assay: Comparison of cytotoxicity of Ia and Ib in vitro, precursor incorporation (Example 12); assay type: cell-based
# Description: as §1, §3
# In analogous experiments, the following values of IC50 were determined: […]
# Crocker tumor (S180) = assay: Antitumor activity against Crocker tumor (S180) in mice, tumor weight (Example 3); assay type: in vivo, female mice H; settings: S180, mice H, p.o. 200 or 100 mg/kg once a day, eight times; day 14
# Description: as §1
# Sixty female mice H weighing approximately 20 g are divided into three groups: one control group and two experimental groups of 20 animals each. A lethal dose of the Crocker tumor (S180) homogenate is implanted subcutaneously in all the animals. […]
# [6] = Toxicity and tolerability by oral route; assay type: in vivo, small rodents; rat; mouse; man
# Description: The compounds described herein can be administered to suitable biological subjects, particularly mammals, for their therapeutic antitumor effects, by conventional modes of administration alone, but preferably as active ingredients with any conventional suitable non-toxic pharmaceutical carrier, dissolved or suspended, for example, in water, saline, polyethylene or polypropylene alcohols, etc. The administration is preferably by the oral route. […]. The dosage administered will be dependent upon the type of tumor for which treatment is desired, the type of biological subject involved, weight, body surface, localization of the tumor, its morphological type, the frequency of treatment, individual tolerance and responsiveness of each subject, etc; for example, by oral route, the prolonged administration of 100, 200 mg/kg daily appears to be well tolerated both in the rat and in the mouse. The assessment drawn from the biological tests is that doses of 20 mg/kg (e.g. about 740 mg/m^2) may be regarded as well tolerated in man.
# Ehrlich tumor (STE) = assay: Antitumor activity against implanted Ehrlich tumor (STE) in mice, tumor weight (Example 4); assay type: in vivo, female mice H; settings: mice H
# Description: as §1
# Sixty female mice H weighing approximately 20 g are divided into three groups: one control group and two experimental groups of 20 animals each. A lethal dose of the Crocker tumor (S180) homogenate is implanted subcutaneously in all the animals. The experimental groups are treated with the substance Ia in water suspension. The suspension contains the substance Ia in such an amount that a dose 0.4 or 0.2 ml of the suspension p.o. is equal to a dose 200 or 100 mg Ia/kg. This dose is administered to the experimental animals once a day, eight times altogether, starting on the fifth day after the implantation. On the fourteenth day after the implantation, a half of the animals in each group is sacrificed in ether anaesthesia, and tumors are removed and weighed. The remaining animals are left to monitor the time of death.
# Zajdel ascitic hepatoma [7] = assay: Survival of rats with implanted Zajdel ascitic hepatoma (Example 5); assay type: in vivo, female Wistar rats; settings: Wistar rats
# Description: as §1, with “2963--1982). […]” for “2963--1982).”
# [8] = precursor 5-iodo-2'-deoxy(6-3H)uridine, read-out: IC50 (initial velocity of 3H incorporation)
# [9] = precursor L-(U-14C)aminoacids, read-out: IC50 (initial velocity of 14C incorporation)
# [10] = precursor 5-iodo-2'-deoxy(6-3H)uridine (Example 12)
# [11] = precursor L-(U-14C)aminoacids (Example 12)
compound,measurement,setting,value
"Nc1nc(S)c2[nH]cnc2n1 [2-amino-6-mercaptopurine, 2-Amino-6-mercaptopurine, reference compound]",IC50,Ehrlich Carcinoma cells; precursor adenine-14C,> 600 µM
same,IC50,Ehrlich Carcinoma cells; precursor valine-14C,> 600 µM
"Sc1ncnc2nc[nH]c12 [6-mercaptopurine, reference compound]",Period of survival (% of control),Zajdel ascitic hepatoma [1]; p.o. 5 × 20 mg/kg (Example 8),101 % of control
same,Period of survival (% of control),Zajdel ascitic hepatoma [1]; p.o. 5 × 40 mg/kg (Example 8),105 % of control
same,antitumor effect / average period of survival vs non-treated control,Zajdel ascitic hepatoma [1],ineffective; also recorded: inactive
same,IC50,[2]; [8],> 10000 µM
same,IC50,[2]; [9],> 229 µM
same,Period of survival (% of control),Yoshida tumor [3]; p.o. 5 × 20 mg/kg (Example 6),109 % of control
same,Period of survival (% of control),Yoshida tumor [3]; p.o. 5 × 40 mg/kg (Example 6),127 % of control
same,Period of survival (% of control),Yoshida tumor [4]; p.o. 5 × 20 mg/kg (Example 7),107 % of control
same,Period of survival (% of control),Yoshida tumor [4]; p.o. 5 × 40 mg/kg (Example 7),156 % of control
"CN(C)CCOc1cc2c(c3ccccc13)-c1ccccc1C2=O.Cl [Benfluron, 5-[2-(N, N-Dimethylamino)ethoxy]-7-oxo-7H-benzo(c)fluorene hydrochloride, reference compound]",Average period of survival (% of control),Yoshida ascitic sarcoma; Benfluron 40 mg/kg p.o. once,104 % of control
same,Average period of survival (days),Yoshida ascitic sarcoma; Benfluron 40 mg/kg p.o. once,7.67 (6.9; 8.6) days
same,Average period of survival (% of control),Yoshida ascitic sarcoma; Benfluron 80 mg/kg p.o. once,104 % of control
same,Average period of survival (days),Yoshida ascitic sarcoma; Benfluron 80 mg/kg p.o. once,7.61 (6.5; 8.9) days
same,Average period of survival (% of control),Yoshida ascitic sarcoma; Benfluron 160 mg/kg p.o. once,106 % of control
same,Average period of survival (days),Yoshida ascitic sarcoma; Benfluron 160 mg/kg p.o. once,7.79 (6.9; 8.8) days
Nc1ncnc2c1ncn2C(=O)NCCCl [N-(2-chloroethyl)-6-aminopurine-9-carboxamide],biological activity,[5],did not exhibit any biological activity
"CCN(CC)C(=O)Nc1ncnc2nc[nH]c12 [N-(6-purinyl)-N', N'-diethylurea]",antineoplastic action,[5],weak antineoplastic action
"O=C(NCCCl)Sc1ncnc2nc[nH]c12 [Substance Ia, 6-[N-(2-Chloroethyl)carbamoyl]thiopurine]",Period of survival (% of control),Zajdel ascitic hepatoma [1]; p.o. 5 × 100 mg/kg (Example 8),120 % of control
same,Period of survival (% of control),Zajdel ascitic hepatoma [1]; p.o. 5 × 200 mg/kg (Example 8),128 % of control
same,antitumor effect / average period of survival vs non-treated control,Zajdel ascitic hepatoma [1],statistically significantly higher average period of survival
same,IC50,tumor cells; [10],39 µM
same,IC50,tumor cells; [11],62 µM
same,average values of the tumor weight vs non-treated control,Crocker tumor (S180),Statistically significantly lower average values of the tumor weight
same,LD50,"[6]; in vivo, small rodents, oral route",≥ 3000 mg/kg
same,toxicity,[6]; in words,practically non-toxic
same,IC50,[2]; [8],25 µM
same,IC50,[2]; [9],26 µM
same,effectiveness vs thioguanine and/or 6-mercaptopurine,"[2]; Yoshida ascites tumor cells, in words",more effective
same,effectiveness vs thioguanine and/or 6-mercaptopurine,"Ehrlich Carcinoma cells; Ehrlich ascites carcinoma cells, in words",more effective
same,IC50,Ehrlich Carcinoma cells; precursor adenine-14C,94 µM
same,IC50,Ehrlich Carcinoma cells; precursor valine-14C,155 µM
same,Average period of survival (% of control),Yoshida ascitic sarcoma; Ia 4 × 50 mg/kg p.o.,125 % of control
same,Average period of survival (days),Yoshida ascitic sarcoma; Ia 4 × 50 mg/kg p.o.,9.20 (7.6; 11.1) days
same,Average period of survival (% of control),Yoshida ascitic sarcoma; Ia 4 × 100 mg/kg p.o.,149 % of control
same,Average period of survival (days),Yoshida ascitic sarcoma; Ia 4 × 100 mg/kg p.o.,10.94 (9.0; 13.3) days
same,Average period of survival (% of control),Yoshida ascitic sarcoma; Ia 4 × 200 mg/kg p.o.,121 % of control
same,Average period of survival (days),Yoshida ascitic sarcoma; Ia 4 × 200 mg/kg p.o.,8.86 (7.4; 10.7) days
same,survival vs control group,"Yoshida ascitic sarcoma; Yoshida ascitic sarcoma, in words, over 29 days",survive longer
same,Tumor weight (% of control),Ehrlich tumor (STE); p.o. 8 × 100 mg/kg,80 % of control
same,Tumor weight (% of control),Ehrlich tumor (STE); p.o. 8 × 200 mg/kg,70 % of control
same,Period of survival (% of control),Zajdel ascitic hepatoma [7]; p.o. 5 × 100 mg/kg,117 % of control
same,Period of survival (% of control),Zajdel ascitic hepatoma [7]; p.o. 5 × 200 mg/kg,126 % of control
same,Period of survival (% of control),Yoshida tumor [3]; p.o. 5 × 100 mg/kg (Example 6),134 % of control
same,Period of survival (% of control),Yoshida tumor [3]; p.o. 5 × 200 mg/kg (Example 6),127 % of control
same,Period of survival (% of control),Yoshida tumor [4]; p.o. 5 × 100 mg/kg (Example 7),124 % of control
same,Period of survival (% of control),Yoshida tumor [4]; p.o. 5 × 200 mg/kg (Example 7),158 % of control
"O=C(NCCCl)Oc1ncnc2nc[nH]c12 [Substance Ib, 6-[N-(2-Chloroethyl)carbamoyl]oxypurine]",IC50,tumor cells; [10],55 µM
same,IC50,tumor cells; [11],80 µM
same,Tumor weight (% of control),Ehrlich tumor (STE); p.o. 8 × 100 mg/kg,76 % of control
same,Tumor weight (% of control),Ehrlich tumor (STE); p.o. 8 × 200 mg/kg,81 % of control
same,Period of survival (% of control),Yoshida tumor [3]; p.o. 5 × 100 mg/kg (Example 6),100 % of control
same,Period of survival (% of control),Yoshida tumor [3]; p.o. 5 × 200 mg/kg (Example 6),83 % of control
